Structures are written as SMILES. “Also recorded” adds a separate entry of the source.

As a reminder, the IC50 is the concentration that inhibits the measured activity by half. One may read the Ki as the dissociation constant of the complex between target and ligand, obtained from inhibition or displacement. Lower therefore signals tighter binding.

Common to all, as to format: biochemical
One assay deals with AChE. Description: Residual activity of AChE at 10 μM. The conditions noted are these: inhibitor 10 μM.
The next assay concerns BChE. The experiment in a line: Residual activity of BChE at 10 μM. Particulars: inhibitor 10 μM.
The target of assay [1] is T1, MAO-B (Homo sapiens, UniProt P27338).
T1 sequence (P27338 1-520): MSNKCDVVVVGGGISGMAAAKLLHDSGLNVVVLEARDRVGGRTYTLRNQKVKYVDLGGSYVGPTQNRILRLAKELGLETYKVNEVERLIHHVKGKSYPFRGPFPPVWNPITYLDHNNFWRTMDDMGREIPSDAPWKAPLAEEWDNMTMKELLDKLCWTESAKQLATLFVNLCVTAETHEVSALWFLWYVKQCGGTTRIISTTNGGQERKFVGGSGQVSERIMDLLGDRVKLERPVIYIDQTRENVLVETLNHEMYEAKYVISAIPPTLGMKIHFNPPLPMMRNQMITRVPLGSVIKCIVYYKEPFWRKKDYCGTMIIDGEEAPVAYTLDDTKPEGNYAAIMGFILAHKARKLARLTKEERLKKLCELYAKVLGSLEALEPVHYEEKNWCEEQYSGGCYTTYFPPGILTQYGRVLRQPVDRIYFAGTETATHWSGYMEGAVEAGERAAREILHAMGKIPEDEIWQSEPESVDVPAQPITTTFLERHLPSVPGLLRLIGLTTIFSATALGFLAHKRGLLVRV
Description: Inhibition of MAO-B. The conditions noted are these: for SI (MAO), selectivity index = IC50 (MAO-A)/IC50(MAO-B): MAO-B over MAO-A; for remaining activity at 10 µM: read-out: Residual activities at 10 μM (%) MAO-B.

The target of the next assay is T2, Recombinant human MAO-A (Homo sapiens, UniProt P21397).
T2 sequence (P21397 1-527): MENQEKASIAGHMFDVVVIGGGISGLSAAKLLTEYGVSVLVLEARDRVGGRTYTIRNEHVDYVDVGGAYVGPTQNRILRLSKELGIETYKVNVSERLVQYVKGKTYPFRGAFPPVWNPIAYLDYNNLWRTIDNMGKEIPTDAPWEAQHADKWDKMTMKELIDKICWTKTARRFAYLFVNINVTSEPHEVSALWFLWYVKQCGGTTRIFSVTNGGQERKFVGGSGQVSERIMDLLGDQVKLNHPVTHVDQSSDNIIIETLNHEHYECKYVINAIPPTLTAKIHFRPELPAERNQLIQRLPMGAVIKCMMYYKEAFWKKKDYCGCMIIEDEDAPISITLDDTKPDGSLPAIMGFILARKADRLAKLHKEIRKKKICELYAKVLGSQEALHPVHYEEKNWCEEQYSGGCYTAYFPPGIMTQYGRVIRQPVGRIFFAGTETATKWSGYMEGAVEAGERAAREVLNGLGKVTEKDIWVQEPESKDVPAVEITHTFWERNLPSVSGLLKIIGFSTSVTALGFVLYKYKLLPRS
The experiment in a line: Inhibition of MAO-A. The conditions noted are these: for remaining activity at 10 µM: read-out: Residual activities at 10 μM (%) MAO-A.

For assay [2], the target named is T1, MAO-B. The experiment in a line: Reversibility of MAO-B inhibition by dialysis. Particulars: 2-times IC50.
The target of assay [3] is T1, MAO-B. The experiment in a line: Enzyme kinetics of MAO-B inhibition.

As for `O=C1c2ccccc2NC12CCCC2` [Compound 10a], the “Residual activities at 10 μM (%) AChE” value with AChE is 76.29 ± 6.64%. The “Residual activities at 10 μM (%) BChE” value in the assay on BChE came out at 73.90 ± 4.90%. Also, at MAO-B [1], it took 15.6 ± 2.33 µM to reach half-maximal inhibition (IC50); the “SI (MAO), selectivity index = IC50 (MAO-A)/IC50(MAO-B)” value (“SI (MAO), selectivity index = IC50” below) was 1.34; the remaining activity at 10 µM stood at 57 ± 2.99%. Also, on Recombinant human MAO-A, the 50% inhibitory concentration (IC50) was 20.8 ± 2.89 µM and the remaining activity at 10 µM stood at 66.9 ± 2.47%.
For `Cc1ccc2c(c1)C(=O)C1(CCCC1)N2` [Compound 10b], in the assay on AChE, the “Residual activities at 10 μM (%) AChE” value came to 83.39 ± 1.93%. Besides, the “Residual activities at 10 μM (%) BChE” value in the assay on BChE is on record as 73.82 ± 7.10%. Further, at MAO-B [1], the IC50 is greater than 40 µM and the remaining activity at 10 µM came to 82.2 ± 9.06%. Also, on Recombinant human MAO-A, the IC50 was greater than 40 µM and the remaining activity at 10 µM was 72.2 ± 3.58%.
Regarding `Cc1ccc2c(c1)C(=O)C1(CCCC1)N2Cc1ccccc1` [Compound 11b], the “Residual activities at 10 μM (%) AChE” value in the assay with AChE is given as 80.92 ± 5.07%. For the same compound, in the assay on BChE, the “Residual activities at 10 μM (%) BChE” value is 65.10 ± 0.74%. Moreover, on MAO-B [1], the IC50 was 5.99 ± 0.36 µM and the remaining activity at 10 µM was found to be 26.1 ± 2.75%. Further, on Recombinant human MAO-A, the IC50 was greater than 40 µM and the remaining activity at 10 µM amounted to 79.6 ± 5.03%.
`O=C1c2cc(Br)ccc2N(Cc2ccccc2)C12CCCC2` [Compound 11d]: the “Residual activities at 10 μM (%) AChE” value in the assay with AChE came to 81.90 ± 1.22%. In addition, in the assay with BChE, the “Residual activities at 10 μM (%) BChE” value was 71.19 ± 4.17%. Moreover, on MAO-B [1], the concentration for half-maximal inhibition (IC50) was 2.81 ± 0.71 µM; the “SI (MAO), selectivity index = IC50” value was found to be 5.00; the remaining activity at 10 µM was -16.2 ± 2.34%. For the same compound, on Recombinant human MAO-A, the IC50 came out at 14 ± 0.96 µM and the remaining activity at 10 µM turned out to be 62 ± 0.94%.
Regarding `O=C1c2ccccc2N(Cc2ccc(Br)cc2)C12CCCC2` [Compound 11f], in the assay with AChE, the “Residual activities at 10 μM (%) AChE” value was determined as 68.95 ± 0.39%. The “Residual activities at 10 μM (%) BChE” value with BChE turned out to be 72.06 ± 6.88%. For the same compound, the “Reversibility of MAO-B inhibition” value on MAO-B [2] was “reversible”. In addition, on MAO-B [1], the IC50 came to 1.44 ± 0.21 µM; the “SI (MAO), selectivity index = IC50” value is reported as 11.91; the remaining activity at 10 µM came to 5.22 ± 1.06%. Besides, at Recombinant human MAO-A, the IC50 came to 17.2 ± 1.14 µM and the remaining activity at 10 µM is 67.9 ± 6.53%. The compound further yielded a Ki on MAO-B [3] of 510 ± 23 nM. Further, at MAO-B [3] (Lineweaver–Burk plot), the “Type of MAO-B inhibition” value is “competitive inhibitor; also recorded: competitive inhibition”.
For `O=C1c2ccccc2N(Cc2ccccc2Br)C12CCCC2` [Compound 11k], the “Residual activities at 10 μM (%) AChE” value in the assay with AChE is given as 68.03 ± 3.68%. Besides, the “Residual activities at 10 μM (%) BChE” value in the assay on BChE worked out at 51.41 ± 0.53%. Moreover, on MAO-B [1], the IC50 stood at 14.3 ± 1.45 µM; the “SI (MAO), selectivity index = IC50” value amounted to 0.63; the remaining activity at 10 µM stood at 60.2 ± 1.44%. On Recombinant human MAO-A, the IC50 came to 9.01 ± 0.36 µM and the remaining activity at 10 µM stood at 41.9 ± 4.56%.

The record behind these values is article PMC10442599 (RSC Advances, 2023).
